# Experiment: Aqueous solubility of the compound
# Assay type: physicochemical
# Details: buffer
structure (smiles),measurement,value
CC(C)=CCOc1ccc(-c2cnc(-c3ccccc3)o2)cc1,solubility,Insoluble
